Results taken from ChEMBL document CHEMBL5705899 (Biochem J, 2014).
Activity calls are given as the source filed them. No cut-off for these calls is given here.

Tests used:
[1] = target: Inhibitor of nuclear factor kappa-B kinase subunit alpha (Homo sapiens) (UniProt O15111); test: Inhibition of human IKKalpha at 1 uM using RBER-CHKtide as substrate in presence of 33P-ATP by ProQinase assay
[2] = target: High affinity nerve growth factor receptor (Homo sapiens) (UniProt P04629); test: Inhibition of human TRKA at 1 uM using PolyEY as substrate in presence of 33P-ATP by ProQinase assay
[3] = target: CDK2/Cyclin A2 (Homo sapiens) (UniProt P24941+P20248); test: Inhibition of human CDK2/CycA2 at 1 uM using RBER-CHKtide as substrate in presence of 33P-ATP by ProQinase assay; assay type: protein-complex assay
[4] = target: Protein kinase C alpha type (Homo sapiens) (UniProt P17252); test: Inhibition of human PKCalpha at 1 uM using 3xChocktide-PKC as substrate in presence of 33P-ATP by ProQinase assay
[5] = target: Ephrin type-A receptor 3 (Homo sapiens) (UniProt P29320); test: Inhibition of human EPHA3 at 1 uM using polyEY as substrate in presence of 33P-ATP by ProQinase assay
[6] = target: Tyrosine-protein kinase Fer (Homo sapiens) (UniProt P16591); test: Inhibition of human FER at 1 uM using polyEY as substrate in presence of 33P-ATP by ProQinase assay
Chain of Tyrosine-protein kinase Fer (Homo sapiens) (P16591 whole entry, looked up, the tested form may be a part): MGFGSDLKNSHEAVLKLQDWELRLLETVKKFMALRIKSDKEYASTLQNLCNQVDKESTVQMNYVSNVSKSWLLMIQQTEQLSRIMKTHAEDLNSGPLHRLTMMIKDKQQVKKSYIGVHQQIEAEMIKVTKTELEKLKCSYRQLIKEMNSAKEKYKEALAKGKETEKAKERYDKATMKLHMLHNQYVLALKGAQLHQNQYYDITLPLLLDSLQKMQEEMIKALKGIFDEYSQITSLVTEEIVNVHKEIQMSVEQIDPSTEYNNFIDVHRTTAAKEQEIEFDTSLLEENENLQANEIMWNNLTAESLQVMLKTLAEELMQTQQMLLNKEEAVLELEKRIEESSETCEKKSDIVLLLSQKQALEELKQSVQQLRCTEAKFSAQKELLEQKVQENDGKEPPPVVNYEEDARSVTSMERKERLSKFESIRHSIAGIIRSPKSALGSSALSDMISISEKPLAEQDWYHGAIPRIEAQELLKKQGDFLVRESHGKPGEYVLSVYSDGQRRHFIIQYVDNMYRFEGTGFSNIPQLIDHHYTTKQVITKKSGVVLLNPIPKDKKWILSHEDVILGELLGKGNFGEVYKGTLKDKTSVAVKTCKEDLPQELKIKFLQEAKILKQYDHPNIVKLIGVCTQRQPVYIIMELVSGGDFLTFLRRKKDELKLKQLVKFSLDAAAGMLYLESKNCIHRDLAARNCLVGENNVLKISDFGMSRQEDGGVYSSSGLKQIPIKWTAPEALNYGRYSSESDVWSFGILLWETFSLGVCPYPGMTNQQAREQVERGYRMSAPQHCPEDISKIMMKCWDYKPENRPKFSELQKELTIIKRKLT

[7] = target: Calcium/calmodulin-dependent protein kinase kinase 2 (Homo sapiens) (UniProt Q96RR4); test: Inhibition of recombinant human N-terminal GST-tagged CAMKKbeta (1 to 541 residues) expressed in Escherichia coli assessed as remaining activity at 1 uM using DGEFLRTSCGSPNYAARRR as substrate incubated for 30 mins in presence of [gamma-33P]ATP by filter binding method relative to control
Chain of Calcium/calmodulin-dependent protein kinase kinase 2 (Homo sapiens) (Q96RR4 2-588 limits assumed): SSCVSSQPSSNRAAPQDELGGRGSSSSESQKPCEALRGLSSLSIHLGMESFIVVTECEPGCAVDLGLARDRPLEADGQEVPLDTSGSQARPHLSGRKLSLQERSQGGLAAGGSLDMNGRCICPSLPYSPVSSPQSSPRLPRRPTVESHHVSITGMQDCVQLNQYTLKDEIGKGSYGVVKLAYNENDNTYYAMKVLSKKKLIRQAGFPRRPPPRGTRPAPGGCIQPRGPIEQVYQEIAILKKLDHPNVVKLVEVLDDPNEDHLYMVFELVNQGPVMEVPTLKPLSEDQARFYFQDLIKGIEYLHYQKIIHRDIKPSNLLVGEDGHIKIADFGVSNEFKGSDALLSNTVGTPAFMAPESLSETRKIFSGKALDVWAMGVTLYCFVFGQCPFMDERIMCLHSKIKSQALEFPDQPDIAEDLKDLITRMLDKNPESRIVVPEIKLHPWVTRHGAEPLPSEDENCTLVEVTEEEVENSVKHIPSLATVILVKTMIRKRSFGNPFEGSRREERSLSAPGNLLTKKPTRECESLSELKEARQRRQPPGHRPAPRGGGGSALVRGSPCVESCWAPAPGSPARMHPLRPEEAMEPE

[8] = target: G protein-coupled receptor kinase 6 (Homo sapiens) (UniProt P43250); test: Inhibition of human GRK6 at 1 uM using casein as substrate in presence of 33P-ATP by ProQinase assay
Chain of G protein-coupled receptor kinase 6 (Homo sapiens) (P43250 whole entry, looked up): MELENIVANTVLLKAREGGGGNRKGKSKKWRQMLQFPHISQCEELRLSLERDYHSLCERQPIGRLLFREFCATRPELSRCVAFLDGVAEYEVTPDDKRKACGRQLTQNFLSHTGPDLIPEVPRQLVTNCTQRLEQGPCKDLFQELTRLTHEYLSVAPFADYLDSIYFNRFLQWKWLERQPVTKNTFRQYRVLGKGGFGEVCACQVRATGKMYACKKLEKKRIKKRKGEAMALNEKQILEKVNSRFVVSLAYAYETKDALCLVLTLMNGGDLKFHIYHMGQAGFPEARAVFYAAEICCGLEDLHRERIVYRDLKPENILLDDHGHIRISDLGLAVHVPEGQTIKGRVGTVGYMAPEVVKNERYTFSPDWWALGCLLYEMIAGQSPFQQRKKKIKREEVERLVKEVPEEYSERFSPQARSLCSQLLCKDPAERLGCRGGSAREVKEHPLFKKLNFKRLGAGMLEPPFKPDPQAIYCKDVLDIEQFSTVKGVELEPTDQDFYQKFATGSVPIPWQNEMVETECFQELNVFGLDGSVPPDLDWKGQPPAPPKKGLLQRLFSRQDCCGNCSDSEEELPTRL

[9] = target: Tyrosine-protein kinase HCK (Homo sapiens) (UniProt P08631); test: Inhibition of human HCK at 1 uM using polyEY as substrate in presence of 33P-ATP by ProQinase assay
[10] = target: SRSF protein kinase 1 (Homo sapiens) (UniProt Q96SB4); test: Inhibition of recombinant human N-terminal GST-tagged SRPK1 (2 to 654 residues) expressed in Escherichia coli assessed as remaining activity at 1 uM using RSRSRSRSRSRSRSR as substrate incubated for 30 mins in presence of [gamma-33P]ATP by filter binding method relative to control
Chain of SRSF protein kinase 1 (Homo sapiens) (Q96SB4 whole entry, the tested form may be a part): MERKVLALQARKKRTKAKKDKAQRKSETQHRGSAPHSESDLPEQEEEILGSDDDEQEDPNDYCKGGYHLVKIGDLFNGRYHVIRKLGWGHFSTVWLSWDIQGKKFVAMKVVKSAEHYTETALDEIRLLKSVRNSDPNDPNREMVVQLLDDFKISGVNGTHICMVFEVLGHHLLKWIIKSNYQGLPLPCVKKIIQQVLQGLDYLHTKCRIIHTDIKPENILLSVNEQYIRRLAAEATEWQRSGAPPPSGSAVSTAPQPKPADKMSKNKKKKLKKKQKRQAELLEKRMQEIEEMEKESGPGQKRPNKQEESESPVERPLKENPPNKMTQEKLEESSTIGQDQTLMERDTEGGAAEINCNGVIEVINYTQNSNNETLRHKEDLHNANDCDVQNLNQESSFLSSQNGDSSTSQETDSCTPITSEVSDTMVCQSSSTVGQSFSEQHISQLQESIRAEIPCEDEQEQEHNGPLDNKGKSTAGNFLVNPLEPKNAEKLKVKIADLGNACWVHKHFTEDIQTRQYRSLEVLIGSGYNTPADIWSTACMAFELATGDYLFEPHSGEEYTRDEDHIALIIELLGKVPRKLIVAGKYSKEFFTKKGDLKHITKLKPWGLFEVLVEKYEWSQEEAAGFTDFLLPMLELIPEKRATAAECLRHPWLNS

[11] = system: RAC-alpha serine/threonine-protein kinase (Homo sapiens), P31749 [S473D]; test: Inhibition of recombinant human His6-tagged PKBalpha S473D mutant (118 to 480 residues) expressed in baculovirus infected Sf21 cells assessed as remaining activity at 1 uM using crosstide peptide as substrate incubated for 30 mins in presence of [gamma-33P]ATP by filter binding method relative to control
Chain of RAC-alpha serine/threonine-protein kinase (Homo sapiens), P31749 [S473D] (P31749 whole entry S473D, the tested form may be a part, canonical isoform): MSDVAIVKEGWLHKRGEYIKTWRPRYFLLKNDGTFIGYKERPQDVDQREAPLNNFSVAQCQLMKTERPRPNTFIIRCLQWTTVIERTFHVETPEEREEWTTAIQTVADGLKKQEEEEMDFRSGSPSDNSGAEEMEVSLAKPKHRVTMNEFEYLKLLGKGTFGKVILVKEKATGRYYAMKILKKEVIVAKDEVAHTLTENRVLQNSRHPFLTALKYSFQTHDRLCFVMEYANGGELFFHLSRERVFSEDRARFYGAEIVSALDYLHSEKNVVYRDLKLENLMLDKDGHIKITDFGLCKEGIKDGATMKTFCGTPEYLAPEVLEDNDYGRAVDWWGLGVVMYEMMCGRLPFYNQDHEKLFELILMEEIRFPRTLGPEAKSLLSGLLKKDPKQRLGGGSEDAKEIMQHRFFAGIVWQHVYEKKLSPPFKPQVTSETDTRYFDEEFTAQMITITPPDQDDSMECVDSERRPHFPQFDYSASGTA

[12] = target: Phosphorylase b kinase gamma catalytic chain, liver/testis isoform (Homo sapiens) (UniProt P15735); test: Inhibition of human PHKG2 at 1 uM using RBER-CHKtide as substrate in presence of 33P-ATP by ProQinase assay
Chain of Phosphorylase b kinase gamma catalytic chain, liver/testis isoform (Homo sapiens) (P15735 whole entry, canonical isoform): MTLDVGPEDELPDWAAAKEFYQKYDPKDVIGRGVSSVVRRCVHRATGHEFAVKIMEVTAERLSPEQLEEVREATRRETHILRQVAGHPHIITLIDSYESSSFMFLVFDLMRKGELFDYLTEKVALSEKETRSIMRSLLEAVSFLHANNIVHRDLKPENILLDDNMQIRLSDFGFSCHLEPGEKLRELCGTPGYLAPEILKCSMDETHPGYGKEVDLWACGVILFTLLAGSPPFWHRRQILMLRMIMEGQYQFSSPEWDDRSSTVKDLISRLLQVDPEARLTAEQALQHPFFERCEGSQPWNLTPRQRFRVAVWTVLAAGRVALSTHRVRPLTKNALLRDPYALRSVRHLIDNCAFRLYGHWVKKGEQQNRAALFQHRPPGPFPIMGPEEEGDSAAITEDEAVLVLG

[13] = target: Mitogen-activated protein kinase kinase kinase 1 (Homo sapiens) (UniProt Q13233); test: Inhibition of human MAP3K1 at 1 uM using bio-4xCHKT as substrate in presence of 33P-ATP by ProQinase assay
[14] = target: Myosin light chain kinase (Homo sapiens) (UniProt Q32MK0); test: Inhibition of human MYLK3 at 1 uM using RB-S6P as substrate in presence of 33P-ATP by ProQinase assay
[15] = target: Tyrosine-protein kinase SYK (Homo sapiens) (UniProt P43405); test: Inhibition of recombinant human N-terminal His6-tagged SYK (1 to 635 residues) expressed in baculovirus infected Sf21 cells assessed as remaining activity at 1 uM using Poly (Glu,Tyr) as substrate incubated for 30 mins in presence of [gamma-33P]ATP by filter binding method relative to control
[16] = target: Protein kinase C alpha type (Homo sapiens) (UniProt P17252); test: Inhibition of recombinant human N-terminal His6-tagged PKCalpha (1 to 672 residues) expressed in baculovirus infected Sf21 cells assessed as remaining activity at 1 uM using Histone H1 as substrate incubated for 30 mins in presence of [gamma-33P]ATP by filter binding method relative to control
[17] = target: T1, 3-phosphoinositide-dependent protein kinase 1 (Homo sapiens) (UniProt O15530); test: Inhibition of recombinant human His6-tagged PDK1 (52 to 556 residues) expressed in baculovirus infected Sf21 cells assessed as remaining activity at 1 uM using PDKtide as substrate incubated for 30 mins in presence of [gamma-33P]ATP by filter binding method relative to control
T1 sequence (whole entry): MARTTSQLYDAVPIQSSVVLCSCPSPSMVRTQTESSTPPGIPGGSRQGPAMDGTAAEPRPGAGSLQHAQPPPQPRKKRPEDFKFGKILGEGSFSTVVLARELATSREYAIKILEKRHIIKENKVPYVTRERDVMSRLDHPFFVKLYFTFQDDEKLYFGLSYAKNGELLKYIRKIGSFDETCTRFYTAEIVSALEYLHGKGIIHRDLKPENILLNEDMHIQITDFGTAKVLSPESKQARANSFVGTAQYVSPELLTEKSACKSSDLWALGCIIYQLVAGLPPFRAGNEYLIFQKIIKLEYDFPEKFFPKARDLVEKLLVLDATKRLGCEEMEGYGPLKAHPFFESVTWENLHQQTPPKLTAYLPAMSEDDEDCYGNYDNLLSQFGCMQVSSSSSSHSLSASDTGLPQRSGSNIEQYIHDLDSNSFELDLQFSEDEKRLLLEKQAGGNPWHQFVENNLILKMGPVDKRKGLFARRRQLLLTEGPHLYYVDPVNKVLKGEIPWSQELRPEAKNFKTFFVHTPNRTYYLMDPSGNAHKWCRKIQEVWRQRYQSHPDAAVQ

[18] = target: Dual specificity protein kinase CLK3 (Homo sapiens) (UniProt P49761); test: Inhibition of human CLK3 at 1 uM using RB-S6P as substrate in presence of 33P-ATP by ProQinase assay
[19] = target: Dual specificity protein kinase CLK4 (Homo sapiens) (UniProt Q9HAZ1); test: Inhibition of human CLK4 at 1 uM using MBP as substrate in presence of 33P-ATP by ProQinase assay
Chain of Dual specificity protein kinase CLK4 (Homo sapiens) (Q9HAZ1 whole entry, looked up, the tested form may be a part): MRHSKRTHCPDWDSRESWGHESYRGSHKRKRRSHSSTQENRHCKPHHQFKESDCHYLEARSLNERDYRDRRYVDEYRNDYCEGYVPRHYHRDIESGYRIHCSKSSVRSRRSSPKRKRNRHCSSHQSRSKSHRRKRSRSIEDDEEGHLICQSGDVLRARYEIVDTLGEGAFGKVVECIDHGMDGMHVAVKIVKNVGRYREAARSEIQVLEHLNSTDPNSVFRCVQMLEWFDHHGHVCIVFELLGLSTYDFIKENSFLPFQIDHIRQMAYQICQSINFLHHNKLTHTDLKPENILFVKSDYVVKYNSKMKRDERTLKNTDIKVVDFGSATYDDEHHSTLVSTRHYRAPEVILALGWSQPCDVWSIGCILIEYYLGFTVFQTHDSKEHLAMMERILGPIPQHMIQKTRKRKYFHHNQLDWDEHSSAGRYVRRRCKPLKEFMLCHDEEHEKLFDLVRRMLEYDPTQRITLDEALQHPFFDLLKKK

[20] = target: Serine/threonine-protein kinase PAK 5 (Homo sapiens) (UniProt Q9P286); test: Inhibition of recombinant human N-terminal GST-tagged PAK5 (2 to 719 residues) expressed in Escherichia coli assessed as remaining activity at 1 uM using RRRLSFAEPG as substrate incubated for 30 mins in presence of [gamma-33P]ATP by filter binding method relative to control
[21] = target: Activated CDC42 kinase 1 (Homo sapiens) (UniProt Q07912); test: Inhibition of human ACK1 at 1 uM using polyEy as substrate in presence of 33P-ATP by ProQinase assay

For CC(C)(O)CNc1ncc(-c2ccnc(Nc3ccnc(Cl)c3)n2)c(CC2CC2)n1, the inhibition [1] was “inactive”, the inhibition [2] was “inactive” and the inhibition [3] was “inactive”. The inhibition [4] was “inactive”, the inhibition [5] was “inactive” and the inhibition [6] was “inactive”. The Activity [7] was 108%, the inhibition [8] was “inactive” and the inhibition [9] was “inactive”. For the same molecule, the Activity [10] was 111%, the Activity [11] was 116% and the inhibition [12] was “inactive”. For the same molecule, the inhibition [13] was “inactive”, the inhibition [14] was “inactive” and the Activity [15] was 91%. The Activity [16] was 119%, the Activity [17] was 105% and the inhibition [18] was “inactive”. The inhibition [19] was “inactive”, the Activity [20] was 96% and the inhibition [21] was “inactive”.
